Measured values from ChEMBL document CHEMBL4507286 (2021).

Experiments:
[1] = molecular target: Phosphatidylinositol 4-phosphate 5-kinase type-1 alpha (Homo sapiens) (UniProt Q99755)
[2] = molecular target: Mitogen-activated protein kinase 3 (Homo sapiens) (UniProt P27361)
[3] = molecular target: Serine/threonine-protein kinase MARK1 (Homo sapiens) (UniProt Q9P0L2)
[4] = system: Mast/stem cell growth factor receptor Kit (Homo sapiens), P10721 [L576P]
[5] = molecular target: 1-phosphatidylinositol 3-phosphate 5-kinase (Homo sapiens) (UniProt Q9Y2I7)
1-phosphatidylinositol 3-phosphate 5-kinase (Homo sapiens), sequence (Q9Y2I7 whole entry): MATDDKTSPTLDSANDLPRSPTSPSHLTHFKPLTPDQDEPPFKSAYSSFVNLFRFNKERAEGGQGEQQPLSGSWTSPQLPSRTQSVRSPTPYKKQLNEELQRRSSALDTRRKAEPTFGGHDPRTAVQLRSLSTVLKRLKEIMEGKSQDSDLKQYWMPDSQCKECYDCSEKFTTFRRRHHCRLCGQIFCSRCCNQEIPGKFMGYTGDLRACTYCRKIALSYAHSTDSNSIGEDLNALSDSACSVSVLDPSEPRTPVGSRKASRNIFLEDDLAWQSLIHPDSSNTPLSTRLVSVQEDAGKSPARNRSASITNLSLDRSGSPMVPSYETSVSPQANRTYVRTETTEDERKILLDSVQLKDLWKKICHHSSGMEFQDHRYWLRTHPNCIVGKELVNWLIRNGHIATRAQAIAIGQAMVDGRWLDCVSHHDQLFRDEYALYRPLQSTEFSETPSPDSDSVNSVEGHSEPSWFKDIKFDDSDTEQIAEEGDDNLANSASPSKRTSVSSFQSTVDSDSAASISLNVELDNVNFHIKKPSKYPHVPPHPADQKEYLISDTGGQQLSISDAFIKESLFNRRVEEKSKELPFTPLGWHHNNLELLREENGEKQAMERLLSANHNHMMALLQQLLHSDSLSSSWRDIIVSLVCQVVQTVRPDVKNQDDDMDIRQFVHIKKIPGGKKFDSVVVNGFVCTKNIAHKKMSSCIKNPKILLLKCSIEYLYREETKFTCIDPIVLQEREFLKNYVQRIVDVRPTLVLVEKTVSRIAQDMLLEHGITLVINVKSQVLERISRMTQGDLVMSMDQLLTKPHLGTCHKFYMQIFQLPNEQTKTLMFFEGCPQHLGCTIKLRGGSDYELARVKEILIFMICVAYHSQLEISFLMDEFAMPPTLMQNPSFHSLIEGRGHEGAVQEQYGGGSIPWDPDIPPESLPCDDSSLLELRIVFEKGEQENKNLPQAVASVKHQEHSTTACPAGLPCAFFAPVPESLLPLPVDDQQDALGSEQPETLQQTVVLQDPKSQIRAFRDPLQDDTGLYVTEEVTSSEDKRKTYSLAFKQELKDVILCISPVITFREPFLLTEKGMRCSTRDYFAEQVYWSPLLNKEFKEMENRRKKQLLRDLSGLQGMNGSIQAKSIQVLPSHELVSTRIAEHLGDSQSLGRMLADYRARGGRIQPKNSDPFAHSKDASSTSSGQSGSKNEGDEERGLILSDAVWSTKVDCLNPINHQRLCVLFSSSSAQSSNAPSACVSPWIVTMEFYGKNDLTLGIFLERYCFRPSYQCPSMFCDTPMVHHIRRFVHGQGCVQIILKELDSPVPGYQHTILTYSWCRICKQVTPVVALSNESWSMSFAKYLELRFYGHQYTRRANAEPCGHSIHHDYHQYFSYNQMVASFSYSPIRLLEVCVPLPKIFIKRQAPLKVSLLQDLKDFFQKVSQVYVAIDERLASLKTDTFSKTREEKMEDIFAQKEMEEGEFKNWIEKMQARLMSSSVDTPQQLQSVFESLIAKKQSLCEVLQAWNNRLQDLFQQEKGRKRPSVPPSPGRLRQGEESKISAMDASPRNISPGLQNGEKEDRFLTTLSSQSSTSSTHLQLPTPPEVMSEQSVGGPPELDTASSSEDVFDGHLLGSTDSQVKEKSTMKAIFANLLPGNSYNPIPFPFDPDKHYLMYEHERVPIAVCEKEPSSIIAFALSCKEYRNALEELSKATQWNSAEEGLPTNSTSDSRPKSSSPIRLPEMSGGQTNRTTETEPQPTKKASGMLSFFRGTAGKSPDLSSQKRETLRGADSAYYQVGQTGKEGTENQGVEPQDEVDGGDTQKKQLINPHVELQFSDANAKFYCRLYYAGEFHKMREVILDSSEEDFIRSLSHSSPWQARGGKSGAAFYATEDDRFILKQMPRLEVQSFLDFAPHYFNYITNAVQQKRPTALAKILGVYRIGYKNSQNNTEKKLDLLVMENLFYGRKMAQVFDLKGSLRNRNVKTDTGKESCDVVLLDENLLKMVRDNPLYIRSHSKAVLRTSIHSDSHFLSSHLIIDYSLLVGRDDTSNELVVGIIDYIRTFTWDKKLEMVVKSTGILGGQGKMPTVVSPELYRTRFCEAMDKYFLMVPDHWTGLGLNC

[6] = molecular target: Inhibitor of nuclear factor kappa-B kinase subunit beta (Homo sapiens) (UniProt O14920)
[7] = molecular target: Tyrosine-protein kinase ZAP-70 (Homo sapiens) (UniProt P43403)
[8] = molecular target: High affinity nerve growth factor receptor (Homo sapiens) (UniProt P04629)
[9] = molecular target: Ephrin type-B receptor 3 (Homo sapiens) (UniProt P54753)
[10] = system: Proto-oncogene tyrosine-protein kinase receptor Ret (Homo sapiens), P07949 [V804L]
[11] = system: Proto-oncogene tyrosine-protein kinase receptor Ret (Homo sapiens), P07949 [V804M]
[12] = molecular target: Serine/threonine-protein kinase Nek11 (Homo sapiens) (UniProt Q8NG66)
[13] = molecular target: Leukocyte tyrosine kinase receptor (Homo sapiens) (UniProt P29376)
[14] = molecular target: Serine/threonine-protein kinase Nek5 (Homo sapiens) (UniProt Q6P3R8)
[15] = molecular target: Rho-associated protein kinase 1 (Homo sapiens) (UniProt Q13464)
[16] = system: Epidermal growth factor receptor (Homo sapiens), P00533 [G719C]
[17] = molecular target: Angiopoietin-1 receptor (Homo sapiens) (UniProt Q02763)
[18] = molecular target: Fibroblast growth factor receptor 2 (Homo sapiens) (UniProt P21802)
[19] = system: Receptor-type tyrosine-protein kinase FLT3 (Homo sapiens), P36888 [D835V]
[20] = molecular target: Serine/threonine-protein kinase pim-2 (Homo sapiens) (UniProt Q9P1W9)
[21] = molecular target: Tyrosine-protein kinase Fes/Fps (Homo sapiens) (UniProt P07332)
Tyrosine-protein kinase Fes/Fps (Homo sapiens), sequence (P07332 whole entry): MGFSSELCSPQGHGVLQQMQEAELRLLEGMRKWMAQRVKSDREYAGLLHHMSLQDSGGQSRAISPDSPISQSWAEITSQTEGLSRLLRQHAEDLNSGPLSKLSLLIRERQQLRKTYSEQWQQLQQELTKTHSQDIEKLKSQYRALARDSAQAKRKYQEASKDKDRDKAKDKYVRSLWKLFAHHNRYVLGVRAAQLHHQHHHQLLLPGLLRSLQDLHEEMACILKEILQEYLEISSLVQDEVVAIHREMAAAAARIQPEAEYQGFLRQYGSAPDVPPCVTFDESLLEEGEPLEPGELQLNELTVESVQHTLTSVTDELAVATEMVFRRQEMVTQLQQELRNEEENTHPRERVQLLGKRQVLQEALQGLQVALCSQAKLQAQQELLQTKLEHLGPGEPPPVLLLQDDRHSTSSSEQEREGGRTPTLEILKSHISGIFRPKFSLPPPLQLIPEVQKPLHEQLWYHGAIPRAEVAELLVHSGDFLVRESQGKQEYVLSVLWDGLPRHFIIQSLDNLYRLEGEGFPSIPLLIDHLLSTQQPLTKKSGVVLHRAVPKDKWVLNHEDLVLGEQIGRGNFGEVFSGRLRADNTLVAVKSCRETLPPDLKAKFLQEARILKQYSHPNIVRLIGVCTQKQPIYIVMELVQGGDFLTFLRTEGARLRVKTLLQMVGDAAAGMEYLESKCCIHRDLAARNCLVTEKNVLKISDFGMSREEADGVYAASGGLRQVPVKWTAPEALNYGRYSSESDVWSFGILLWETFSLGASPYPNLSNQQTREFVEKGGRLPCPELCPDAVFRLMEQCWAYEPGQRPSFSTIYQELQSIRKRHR

[22] = molecular target: Serine/threonine-protein kinase 17B (Homo sapiens) (UniProt O94768)
[23] = molecular target: LIM domain kinase 2 (Homo sapiens) (UniProt P53671)
[24] = molecular target: Cyclin-dependent kinase 19 (Homo sapiens) (UniProt Q9BWU1)
Cyclin-dependent kinase 19 (Homo sapiens), sequence (Q9BWU1 whole entry): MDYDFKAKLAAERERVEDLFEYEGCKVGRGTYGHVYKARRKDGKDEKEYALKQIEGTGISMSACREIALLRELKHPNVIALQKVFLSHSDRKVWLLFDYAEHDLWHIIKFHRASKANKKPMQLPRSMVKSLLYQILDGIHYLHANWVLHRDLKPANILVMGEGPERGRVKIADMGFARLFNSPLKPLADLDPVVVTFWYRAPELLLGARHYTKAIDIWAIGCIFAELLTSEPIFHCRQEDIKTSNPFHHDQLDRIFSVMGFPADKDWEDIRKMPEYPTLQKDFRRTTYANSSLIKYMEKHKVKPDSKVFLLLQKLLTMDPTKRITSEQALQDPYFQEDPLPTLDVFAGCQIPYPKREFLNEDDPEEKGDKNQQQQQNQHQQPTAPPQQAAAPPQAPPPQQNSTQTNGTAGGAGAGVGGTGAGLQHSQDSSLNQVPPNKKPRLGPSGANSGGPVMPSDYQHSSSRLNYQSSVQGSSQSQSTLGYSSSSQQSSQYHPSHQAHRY

[25] = molecular target: Dual specificity tyrosine-phosphorylation-regulated kinase 1B (Homo sapiens) (UniProt Q9Y463)
[26] = molecular target: Mitogen-activated protein kinase kinase kinase 19 (Homo sapiens) (UniProt Q56UN5)
[27] = molecular target: Tyrosine-protein kinase Tec (Homo sapiens) (UniProt P42680)
[28] = molecular target: Dual specificity protein kinase CLK3 (Homo sapiens) (UniProt P49761)
[29] = molecular target: Cyclin-dependent kinase 4 (Homo sapiens) (UniProt P11802)
Cyclin-dependent kinase 4 (Homo sapiens), sequence (P11802 whole entry): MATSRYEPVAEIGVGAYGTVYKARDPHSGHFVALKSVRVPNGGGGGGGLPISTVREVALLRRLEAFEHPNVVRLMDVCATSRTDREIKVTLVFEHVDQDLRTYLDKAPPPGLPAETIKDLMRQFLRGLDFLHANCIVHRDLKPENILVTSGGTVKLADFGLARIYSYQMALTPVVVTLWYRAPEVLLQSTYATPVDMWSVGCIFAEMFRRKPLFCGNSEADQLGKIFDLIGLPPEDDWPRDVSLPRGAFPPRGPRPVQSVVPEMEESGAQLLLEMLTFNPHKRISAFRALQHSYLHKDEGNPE

[30] = molecular target: Ribosomal protein S6 kinase alpha-6 (Homo sapiens) (UniProt Q9UK32)
Ribosomal protein S6 kinase alpha-6 (Homo sapiens), sequence (Q9UK32 whole entry): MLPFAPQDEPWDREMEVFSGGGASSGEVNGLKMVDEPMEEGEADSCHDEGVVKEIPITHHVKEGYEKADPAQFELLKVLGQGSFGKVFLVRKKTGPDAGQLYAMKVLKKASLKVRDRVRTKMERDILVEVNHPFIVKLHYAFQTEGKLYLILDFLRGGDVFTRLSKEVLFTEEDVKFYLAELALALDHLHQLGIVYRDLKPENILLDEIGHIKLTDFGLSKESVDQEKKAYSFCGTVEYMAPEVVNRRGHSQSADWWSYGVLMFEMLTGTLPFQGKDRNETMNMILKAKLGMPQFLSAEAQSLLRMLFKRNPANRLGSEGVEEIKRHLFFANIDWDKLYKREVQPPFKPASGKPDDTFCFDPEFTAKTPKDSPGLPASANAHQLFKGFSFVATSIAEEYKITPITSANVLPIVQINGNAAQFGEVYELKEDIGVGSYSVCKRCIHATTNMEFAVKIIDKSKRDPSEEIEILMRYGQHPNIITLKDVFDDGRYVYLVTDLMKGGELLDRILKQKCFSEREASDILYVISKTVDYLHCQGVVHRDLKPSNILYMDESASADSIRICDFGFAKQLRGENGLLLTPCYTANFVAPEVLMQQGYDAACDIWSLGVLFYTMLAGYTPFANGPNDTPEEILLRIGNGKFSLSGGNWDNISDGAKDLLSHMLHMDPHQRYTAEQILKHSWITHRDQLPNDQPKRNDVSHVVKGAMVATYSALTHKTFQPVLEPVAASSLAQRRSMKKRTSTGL

[31] = system: ALK tyrosine kinase receptor (Homo sapiens), Q9UM73 [L1196M]
[32] = molecular target: Mitogen-activated protein kinase kinase kinase 2 (Homo sapiens) (UniProt Q9Y2U5)
[33] = molecular target: Serine/threonine-protein kinase STK11 (Homo sapiens) (UniProt Q15831)
Serine/threonine-protein kinase STK11 (Homo sapiens), sequence (Q15831 whole entry): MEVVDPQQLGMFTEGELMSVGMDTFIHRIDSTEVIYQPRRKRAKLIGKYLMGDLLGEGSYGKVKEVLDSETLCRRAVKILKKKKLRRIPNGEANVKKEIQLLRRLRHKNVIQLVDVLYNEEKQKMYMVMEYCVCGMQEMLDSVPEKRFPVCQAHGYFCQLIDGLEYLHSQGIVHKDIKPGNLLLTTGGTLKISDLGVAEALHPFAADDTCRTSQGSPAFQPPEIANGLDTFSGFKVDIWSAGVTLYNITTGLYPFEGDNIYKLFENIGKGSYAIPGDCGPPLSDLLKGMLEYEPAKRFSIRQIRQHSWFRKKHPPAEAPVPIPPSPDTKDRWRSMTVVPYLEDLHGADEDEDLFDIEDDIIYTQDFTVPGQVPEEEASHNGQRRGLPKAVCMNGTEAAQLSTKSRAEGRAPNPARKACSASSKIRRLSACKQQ

[34] = molecular target: Protein kinase C iota type (Homo sapiens) (UniProt P41743)
[35] = molecular target: GABA-A receptor; anion channel (Rattus norvegicus) (UniProt O09028+P15431+P18506+P18508+P19969+P20236+P23574+P23576+P28471+P28473+P30191+P62813+P63079+P63138+Q91ZM7+Q9ES14); settings: Compound concentration 10.0 uM
[36] = molecular target: Cyclin-dependent kinase 3 (Homo sapiens) (UniProt Q00526)
[37] = molecular target: Mitogen-activated protein kinase kinase kinase kinase 3 (Homo sapiens) (UniProt Q8IVH8)
[38] = molecular target: Histamine H4 receptor (Homo sapiens) (UniProt Q9H3N8); settings: Compound concentration 10.0 uM
[39] = molecular target: Casein kinase I isoform delta (Homo sapiens) (UniProt P48730)
[40] = molecular target: Cyclin-dependent kinase 2 homolog (Plasmodium falciparum (isolate 3D7)) (UniProt P61075)
[41] = molecular target: Ephrin type-A receptor 4 (Homo sapiens) (UniProt P54764)
[42] = molecular target: Misshapen-like kinase 1 (Homo sapiens) (UniProt Q8N4C8)
[43] = molecular target: Alpha-2B adrenergic receptor (Homo sapiens) (UniProt P18089); settings: Compound concentration 10.0 uM
[44] = molecular target: Serine/threonine-protein kinase PknB (Mycobacterium tuberculosis) (UniProt P9WI81)
[45] = Compound concentration 1000.0 nM
[46] = Compound concentration 100.0 nM

C[C@H](NC(=O)Nc1cc2[nH]ncc2c(CO)n1)c1ccccn1 [ERKi-NC]
inactive: residual activity [1, 45] 100% | residual activity [3, 45] 78.7% | residual activity [4, 45] 100% | residual activity [5, 45] 100% | residual activity [6, 45] 100% | residual activity [7, 45] 77.9% | residual activity [8, 45] 81% | residual activity [9, 45] 100% | residual activity [10, 45] 100% | residual activity [11, 45] 81.7% | residual activity [12, 45] 57.7% | residual activity [13, 45] 100% | residual activity [14, 45] 84.3% | residual activity [15, 45] 66% | residual activity [16, 45] 100% | residual activity [17, 45] 71.1% | residual activity [18, 45] 62% | residual activity [19, 45] 88% | residual activity [20, 45] 100% | residual activity [21, 45] 100% | residual activity [22, 45] 100% | residual activity [23, 45] 96% | residual activity [24, 45] 71.3% | residual activity [25, 45] 57.6% | residual activity [26, 45] 100% | residual activity [27, 45] 100% | residual activity [28, 45] 100% | residual activity [29, 45] 89.8% | residual activity [30, 45] 82.7% | residual activity [31, 45] 100% | residual activity [32, 45] 98.4% | residual activity [33, 45] 100% | residual activity [34, 45] 85.5% | inhibition [35] 20.2% | residual activity [36, 45] 100% | residual activity [37, 45] 100% | inhibition [38] 41.9% | residual activity [39, 45] 100% | residual activity [40, 45] 91.1% | residual activity [41, 45] 61% | residual activity [42, 45] 77.7% | inhibition [43] -0.465% | residual activity [44, 45] 100%
active: residual activity [2, 45] 17%

C[C@@H](NC(=O)Nc1cc2[nH]ncc2c(CO)n1)c1ccccc1 [ERKi]
inactive: residual activity [1, 46] 84.5% | residual activity [3, 46] 97% | residual activity [4, 46] 72.1% | residual activity [5, 46] 76.7% | residual activity [6, 46] 100% | residual activity [7, 46] 95.8% | residual activity [8, 46] 90% | residual activity [9, 46] 94.8% | residual activity [10, 46] 100% | residual activity [11, 46] 100% | residual activity [12, 46] 83.4% | residual activity [13, 46] 98.5% | residual activity [14, 46] 97.6% | residual activity [15, 46] 64.7% | residual activity [16, 46] 95.7% | residual activity [17, 46] 100% | residual activity [18, 46] 100% | residual activity [19, 46] 95.2% | residual activity [20, 46] 100% | residual activity [21, 46] 100% | residual activity [22, 46] 95.8% | residual activity [23, 46] 100% | residual activity [24, 46] 97.2% | residual activity [25, 46] 95.9% | residual activity [26, 46] 86.2% | residual activity [27, 46] 93.6% | residual activity [28, 46] 82.2% | residual activity [29, 46] 100% | residual activity [30, 46] 96.8% | residual activity [31, 46] 96.9% | residual activity [32, 46] 87.3% | residual activity [33, 46] 91.2% | residual activity [34, 46] 100% | inhibition [35] 46.2% | residual activity [36, 46] 86.1% | residual activity [37, 46] 84.5% | inhibition [38] 35.3% | residual activity [39, 46] 84.7% | residual activity [40, 46] 80.1% | residual activity [41, 46] 100% | residual activity [42, 46] 90.1% | inhibition [43] -1.5% | residual activity [44, 46] 85%
active: residual activity [2, 46] 0.2%
